PubChem BioAssay (NCI)
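A five-concentration, 48-hour dose response in 96-well plates underlies each endpoint, interpolated linearly between surrounding concentrations. Here, GI50 denotes the concentration required for 50% inhibition of growth. TGI marks complete inhibition of growth.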

Tests used:
Assay in all cases: DTP human tumour cell line panel, 48 h
786-0 renal = tested on: 786-0 renal
A498 renal = tested on: A498 renal
A549 NSCLC = tested on: A549 NSCLC
ACHN renal = tested on: ACHN renal
BT-549 breast = tested on: BT-549 breast
CCRF-CEM leukemia = tested on: CCRF-CEM leukemia
COLO 205 colon = tested on: COLO 205 colon
DU-145 prostate = tested on: DU-145 prostate
EKVX NSCLC = tested on: EKVX NSCLC
HCC-2998 colon = tested on: HCC-2998 colon
HCT-116 colon = tested on: HCT-116 colon
HCT-15 colon = tested on: HCT-15 colon
HL-60(TB) leukemia = tested on: HL-60(TB) leukemia
HOP-62 NSCLC = tested on: HOP-62 NSCLC
HOP-92 NSCLC = tested on: HOP-92 NSCLC
HS 578T breast = tested on: HS 578T breast
HT29 colon = tested on: HT29 colon
IGROV1 ovarian = tested on: IGROV1 ovarian
K-562 leukemia = tested on: K-562 leukemia
KM12 colon = tested on: KM12 colon
LOX IMVI melanoma = tested on: LOX IMVI melanoma
M14 melanoma = tested on: M14 melanoma
MALME-3M melanoma = tested on: MALME-3M melanoma
MCF7 breast = tested on: MCF7 breast
MDA-MB-231 breast = tested on: MDA-MB-231 breast
MDA-MB-435 = tested on: MDA-MB-435
MOLT-4 leukemia = tested on: MOLT-4 leukemia
NCI-H226 lung = tested on: NCI-H226 lung
NCI-H23 lung = tested on: NCI-H23 lung
NCI-H460 lung = tested on: NCI-H460 lung
NCI-H522 lung = tested on: NCI-H522 lung
NCI/ADR-RES ovarian = tested on: NCI/ADR-RES ovarian
OVCAR-3 ovarian = tested on: OVCAR-3 ovarian
OVCAR-4 ovarian = tested on: OVCAR-4 ovarian
OVCAR-5 ovarian = tested on: OVCAR-5 ovarian
OVCAR-8 ovarian = tested on: OVCAR-8 ovarian
PC-3 prostate = tested on: PC-3 prostate
RPMI-8226 leukemia = tested on: RPMI-8226 leukemia
RXF 393 renal = tested on: RXF 393 renal
SF-268 CNS = tested on: SF-268 CNS
SF-295 CNS = tested on: SF-295 CNS
SF-539 CNS = tested on: SF-539 CNS
SK-MEL-2 melanoma = tested on: SK-MEL-2 melanoma
SK-MEL-28 melanoma = tested on: SK-MEL-28 melanoma
SK-MEL-5 melanoma = tested on: SK-MEL-5 melanoma
SK-OV-3 ovarian = tested on: SK-OV-3 ovarian
SN12C renal = tested on: SN12C renal
SNB-19 CNS = tested on: SNB-19 CNS
SNB-75 CNS = tested on: SNB-75 CNS
SR leukemia = tested on: SR leukemia
SW-620 colon = tested on: SW-620 colon
T-47D breast = tested on: T-47D breast
TK-10 renal = tested on: TK-10 renal
U251 CNS = tested on: U251 CNS
UACC-257 melanoma = tested on: UACC-257 melanoma
UACC-62 melanoma = tested on: UACC-62 melanoma
UO-31 renal = tested on: UO-31 renal
CAKI-1 renal = tested on: CAKI-1 renal

## CCN1CCC(Oc2c(C#N)ncc3[nH]c4ncccc4c23)CC1
786-0 renal
  GI50: 1.71 µM
  TGI: > 50 µM
A498 renal
  GI50: 0.296 µM
  TGI: 10.5 µM
A549 NSCLC
  GI50: 14.1 µM
  TGI: > 50 µM
ACHN renal
  GI50: 0.466 µM
  TGI: > 50 µM
BT-549 breast
  GI50: 1.96 µM
  TGI: 21 µM
CCRF-CEM leukemia
  GI50: 1.84 µM
  TGI: > 50 µM
COLO 205 colon
  GI50: 5.72 µM
  TGI: 19.5 µM
DU-145 prostate
  GI50: 10.9 µM
  TGI: > 50 µM
EKVX NSCLC
  GI50: 14.5 µM
  TGI: > 50 µM
HCC-2998 colon
  GI50: 20.3 µM
  TGI: > 50 µM
HCT-116 colon
  GI50: 7.2 µM
  TGI: > 50 µM
HCT-15 colon
  GI50: 9.35 µM
  TGI: > 50 µM
HL-60(TB) leukemia
  GI50: 2.9 µM
  TGI: 17.5 µM
HOP-62 NSCLC
  GI50: 13.2 µM
  TGI: > 50 µM
HOP-92 NSCLC
  GI50: > 50 µM
  TGI: > 50 µM
HS 578T breast
  GI50: 13.1 µM
  TGI: > 50 µM
HT29 colon
  GI50: 10.2 µM
  TGI: > 50 µM
IGROV1 ovarian
  GI50: 15.6 µM
  TGI: > 50 µM
K-562 leukemia
  GI50: 1.75 µM
  TGI: > 50 µM
KM12 colon
  GI50: 2.83 µM
  TGI: > 50 µM
LOX IMVI melanoma
  GI50: 5.72 µM
  TGI: > 50 µM
M14 melanoma
  GI50: 0.357 µM
  TGI: > 50 µM
MALME-3M melanoma
  GI50: 22.9 µM
  TGI: > 50 µM
MCF7 breast
  GI50: 0.403 µM
  TGI: > 50 µM
MDA-MB-231 breast
  GI50: 21.5 µM
  TGI: > 50 µM
MDA-MB-435
  GI50: 1.88 µM
  TGI: > 50 µM
MOLT-4 leukemia
  GI50: 1.67 µM
  TGI: 21.2 µM
NCI-H226 lung
  GI50: 16.3 µM
  TGI: > 50 µM
NCI-H23 lung
  GI50: 3.25 µM
  TGI: > 50 µM
NCI-H460 lung
  GI50: 7.33 µM
  TGI: > 50 µM
NCI-H522 lung
  GI50: 15 µM
  TGI: > 50 µM
NCI/ADR-RES ovarian
  GI50: 2.78 µM
  TGI: > 50 µM
OVCAR-3 ovarian
  GI50: 2.55 µM
  TGI: > 50 µM
OVCAR-4 ovarian
  GI50: 7.88 µM
  TGI: > 50 µM
OVCAR-5 ovarian
  GI50: 19.3 µM
  TGI: > 50 µM
OVCAR-8 ovarian
  GI50: 4.77 µM
  TGI: > 50 µM
PC-3 prostate
  GI50: 21 µM
  TGI: > 50 µM
RPMI-8226 leukemia
  GI50: 11 µM
  TGI: > 50 µM
RXF 393 renal
  GI50: 0.559 µM
  TGI: 4.16 µM
SF-268 CNS
  GI50: 16.2 µM
  TGI: > 50 µM
SF-295 CNS
  GI50: 2.04 µM
  TGI: > 50 µM
SF-539 CNS
  GI50: 1.34 µM
  TGI: 26.2 µM
SK-MEL-2 melanoma
  GI50: 2.48 µM
  TGI: 26.9 µM
SK-MEL-28 melanoma
  GI50: 16.2 µM
  TGI: > 50 µM
SK-MEL-5 melanoma
  GI50: 7.12 µM
  TGI: > 50 µM
SK-OV-3 ovarian
  GI50: 3.99 µM
  TGI: > 50 µM
SN12C renal
  GI50: 14.2 µM
  TGI: > 50 µM
SNB-19 CNS
  GI50: 14.7 µM
  TGI: > 50 µM
SNB-75 CNS
  GI50: 12.9 µM
  TGI: 29.8 µM
SR leukemia
  GI50: 1.32 µM
  TGI: 22.3 µM
SW-620 colon
  GI50: 12.2 µM
  TGI: > 50 µM
T-47D breast
  GI50: 26 µM
  TGI: > 50 µM
TK-10 renal
  GI50: 5.21 µM
  TGI: 41.7 µM
U251 CNS
  GI50: 15.7 µM
  TGI: > 50 µM
UACC-257 melanoma
  GI50: 19.9 µM
  TGI: > 50 µM
UACC-62 melanoma
  GI50: 18.1 µM
  TGI: > 50 µM
UO-31 renal
  GI50: 3.94 µM
  TGI: > 50 µM

## FC(F)(F)c1ccc(-c2cnc(Cl)nc2NC2CCCCCC2)cc1
786-0 renal
  GI50: > 100 µM
  TGI: > 100 µM
A498 renal
  GI50: > 100 µM
  TGI: > 100 µM
A549 NSCLC
  GI50: > 100 µM
  TGI: > 100 µM
ACHN renal
  GI50: > 100 µM
  TGI: > 100 µM
BT-549 breast
  GI50: > 100 µM
  TGI: > 100 µM
CAKI-1 renal
  GI50: 57.4 µM
  TGI: > 100 µM
CCRF-CEM leukemia
  GI50: 27.9 µM
  TGI: > 100 µM
COLO 205 colon
  GI50: 95.5 µM
  TGI: > 100 µM
DU-145 prostate
  GI50: > 100 µM
  TGI: > 100 µM
HCC-2998 colon
  GI50: > 100 µM
  TGI: > 100 µM
HCT-116 colon
  GI50: 35.5 µM
  TGI: > 100 µM
HCT-15 colon
  GI50: > 100 µM
  TGI: > 100 µM
HL-60(TB) leukemia
  GI50: 24.9 µM
  TGI: > 100 µM
HOP-62 NSCLC
  GI50: > 100 µM
  TGI: > 100 µM
HS 578T breast
  GI50: > 100 µM
  TGI: > 100 µM
HT29 colon
  GI50: 71.1 µM
  TGI: > 100 µM
IGROV1 ovarian
  GI50: > 100 µM
  TGI: > 100 µM
K-562 leukemia
  GI50: 54.1 µM
  TGI: > 100 µM
KM12 colon
  GI50: 97.1 µM
  TGI: > 100 µM
M14 melanoma
  GI50: > 100 µM
  TGI: > 100 µM
MALME-3M melanoma
  GI50: > 100 µM
  TGI: > 100 µM
MCF7 breast
  GI50: 31.2 µM
  TGI: > 100 µM
MDA-MB-231 breast
  GI50: 36.4 µM
  TGI: > 100 µM
MDA-MB-435
  GI50: > 100 µM
  TGI: > 100 µM
MOLT-4 leukemia
  GI50: 32.7 µM
  TGI: > 100 µM
NCI-H226 lung
  GI50: > 100 µM
  TGI: > 100 µM
NCI-H23 lung
  GI50: 61.1 µM
  TGI: > 100 µM
NCI-H460 lung
  GI50: 73.1 µM
  TGI: > 100 µM
NCI-H522 lung
  GI50: 45.4 µM
  TGI: > 100 µM
NCI/ADR-RES ovarian
  GI50: > 100 µM
  TGI: > 100 µM
OVCAR-3 ovarian
  GI50: > 100 µM
  TGI: > 100 µM
OVCAR-4 ovarian
  GI50: 38.7 µM
  TGI: > 100 µM
OVCAR-5 ovarian
  GI50: > 100 µM
  TGI: > 100 µM
OVCAR-8 ovarian
  GI50: > 100 µM
  TGI: > 100 µM
PC-3 prostate
  GI50: 28.7 µM
  TGI: > 100 µM
RPMI-8226 leukemia
  GI50: 8.03 µM
  TGI: > 100 µM
RXF 393 renal
  GI50: > 100 µM
  TGI: > 100 µM
SF-268 CNS
  GI50: > 100 µM
  TGI: > 100 µM
SF-295 CNS
  GI50: 69.7 µM
  TGI: > 100 µM
SF-539 CNS
  GI50: > 100 µM
  TGI: > 100 µM
SK-MEL-28 melanoma
  GI50: > 100 µM
  TGI: > 100 µM
SK-MEL-5 melanoma
  GI50: 62.8 µM
  TGI: > 100 µM
SK-OV-3 ovarian
  GI50: > 100 µM
  TGI: > 100 µM
SN12C renal
  GI50: > 100 µM
  TGI: > 100 µM
SNB-19 CNS
  GI50: > 100 µM
  TGI: > 100 µM
SNB-75 CNS
  GI50: 80.6 µM
  TGI: > 100 µM
SR leukemia
  GI50: 38.9 µM
  TGI: > 100 µM
SW-620 colon
  GI50: > 100 µM
  TGI: > 100 µM
T-47D breast
  GI50: 19.1 µM
  TGI: > 100 µM
TK-10 renal
  GI50: > 100 µM
  TGI: > 100 µM
UACC-257 melanoma
  GI50: > 100 µM
  TGI: > 100 µM
UACC-62 melanoma
  GI50: > 100 µM
  TGI: > 100 µM
UO-31 renal
  GI50: > 100 µM
  TGI: > 100 µM
